Paper PMC11445189 (Frontiers in Toxicology, 2024)
Marks after values point to notes of the source that are not given here.

Columns and labels:
zebrafish embryos [1] = test: Single toxicity test for zebrafish embryos (ECx); assay type: in vivo; settings: for EC50: Danio rerio, 144 h, read-out: EC50 (95% CI); for EC50 / EC5 (95% CI) / EC15 (95% CI) / EC25 (95% CI): embryonic toxicity (lethality + abnormality), embryo-larva stage, 6 days exposure, probit; for toxicity to zebrafish embryos, individually: at high concentrations, 500 and 1,000 μg/mL
Protocol: (§1) Zebrafish embryos were obtained from adult zebrafish continuously sub-cultured in Korea Institute Toxicology Laboratory, Republic of Korea and were maintained at 26°C ± 1°C in a climate chamber (16 h daylight: 8 h darkness) until use for toxicity tests ([Park et al., 2022]). […] At 6 days after exposure, embryonic toxicity (%) was scored as follows: [embryonic toxicity (%) = lethality (dead embryo + dead larva) + abnormality (unhatched eggs + abnormal larva)/initial embryos × 100]. Developmental abnormality of zebrafish was investigated based on apical phenotypic observation, such as coagulated embryos, lack of somite formation, non-detachment of the tail, and lack of heartbeat for 6 days after exposure ([OECD, 2013]). Embryonic toxicity (%) was used for estimating the effective concentration values (ECx) for each chemical and 95% confidence limits, by concentration-response curves (CETIS program version 1.8.7.15, Tidepool Scientific Software, United States) ([Park et al., 2022]).

zebrafish embryos [2] = test: Realistic mixture toxicity test, embryonic toxicity; assay type: in vivo; settings: single chemical 10 ng/mL, 6 days after exposure
Protocol: as §1
To verify the developmental effects in zebrafish embryos caused by exposure to realistic mixtures, mixture toxicity tests with zebrafish embryos were performed at a range of environmentally relevant concentrations, and three exposure concentrations at a 1:1 mixing ratio (i.e., 1, 10, and 100 ng/mL of each chemical). […]

sheepshead minnow = settings: acute toxicity, ref Gibbons et al., 2015; cited from earlier work
[3] = ref Mason et al., 2013, cited from earlier work
cyp1b1 = test: qRT-PCR transcriptional alteration in zebrafish embryos; assay type: in vivo; settings: single chemical 10 ng/mL, 6 days, normalized to β-actin
Protocol: (§2) To verify the developmental effects in zebrafish embryos caused by exposure to realistic mixtures, mixture toxicity tests with zebrafish embryos were performed at a range of environmentally relevant concentrations, and three exposure concentrations at a 1:1 mixing ratio (i.e., 1, 10, and 100 ng/mL of each chemical). […] Realistic mixture toxicity tests using zebrafish embryos were performed under the same conditions as the single-toxicity tests.
(§3) To examine the transcriptional alteration of target genes linked to zebrafish embryonic development, The total RNA from 20 zebrafish embryos was extracted using a RNeasy Mini kit (Qiagen, Hilden, Germany), following the manufacturer’s instructions. The total RNA concentration was measured spectrophoto-metrically at 260/280 nm using a Gen5™ spectrophotometer (BioTek®, Winooski, VT, United States). […]
(§4) The primer sequences for target genes were designed to use for quantitative real-time polymerase chain reaction (qRT–PCR): namely aryl hydrocarbon receptor 2 (ahr2), cytochrome P450 monooxygenases (i.e., cyp1a1 and cyp1b1), nuclear factor erythroid 2-related factors (i.e., nrf1a and nrf2a), tumor suppressor gene (p53), thyroid stimulating hormone beta subunit (tsh-β), and thyroid hormone receptors (i.e., thraa and thrb) (Supplementary Table S1) ([Fan et al., 2018]; [Liu et al., 2011]; [Ren et al., 2020]; [Williams et al., 2013]). […]

cyp1a1 = test: as above; assay type: in vivo; settings: single chemical 10 ng/mL, 6 days, normalized to β-actin
Protocol: as §2, §3, §4

In the case of `O=[N+]([O-])NC1=NCCN1Cc1ccc(Cl)nc1` [IMD, imidacloprid], the EC50 (zebrafish embryos [1]) is reported as 268 µg/mL, the “toxicity to zebrafish embryos, individually” value (zebrafish embryos [1]) is reported as “toxic” and the “EC5 (95% CI)” value (zebrafish embryos [1]) is reported as 60.80 (N.C.–108.36) µg/mL. For the same compound, the “EC15 (95% CI)” value (zebrafish embryos [1]) was 145.69 (113.89–158.99) µg/mL, the “EC25 (95% CI)” value (zebrafish embryos [1]) was 175.04 (146.25–196.54) µg/mL and the “Embryonic toxicity (%)” value (zebrafish embryos [2]) was 12.5 ± 2.8%. The “50% lethal concentration (LC50)” value (sheepshead minnow) was 93.6 µg/mL.

In the case of `CN/C(=N\[N+](=O)[O-])NCc1cnc(Cl)s1` [CLO, Clothianidin], the EC50 (zebrafish embryos [1]) is reported as 411 µg/mL, the “toxicity to zebrafish embryos, individually” value (zebrafish embryos [1]) is reported as “toxic” and the “EC5 (95% CI)” value (zebrafish embryos [1]) is reported as 65.28 (N.C.–104.61) µg/mL. The “EC15 (95% CI)” value (zebrafish embryos [1]) was 255.72 (224.61–289.12) µg/mL, the “EC25 (95% CI)” value (zebrafish embryos [1]) was 292.89 (247.77–332.07) µg/mL and the half-life in sediment ([3]; sediment) was 56 days. The half-life in soil ([3]; soil) was “up to 1,386 days”, the “Embryonic toxicity (%)” value (zebrafish embryos [2]) was 12.5 ± 3.4% and the “50% lethal concentration (LC50)” value (sheepshead minnow) was 161 µg/mL. The “Relative fold change of gene expression, cyp1b1” value (cyp1b1) was 1.36±0.34^a and the “Relative fold change of gene expression, cyp1a1” value (cyp1a1) was 0.38±0.06^a.
